This assay deals with T1, CCKB receptor (Mus musculus, UniProt P56481).
T1 construct: The whole brains from male mice (CD1 22-25 g; Charles River) were removed; from tissue; host or cells: cerebral cortex membranes of male CD1 mice
T1 sequence (P56481 1-453): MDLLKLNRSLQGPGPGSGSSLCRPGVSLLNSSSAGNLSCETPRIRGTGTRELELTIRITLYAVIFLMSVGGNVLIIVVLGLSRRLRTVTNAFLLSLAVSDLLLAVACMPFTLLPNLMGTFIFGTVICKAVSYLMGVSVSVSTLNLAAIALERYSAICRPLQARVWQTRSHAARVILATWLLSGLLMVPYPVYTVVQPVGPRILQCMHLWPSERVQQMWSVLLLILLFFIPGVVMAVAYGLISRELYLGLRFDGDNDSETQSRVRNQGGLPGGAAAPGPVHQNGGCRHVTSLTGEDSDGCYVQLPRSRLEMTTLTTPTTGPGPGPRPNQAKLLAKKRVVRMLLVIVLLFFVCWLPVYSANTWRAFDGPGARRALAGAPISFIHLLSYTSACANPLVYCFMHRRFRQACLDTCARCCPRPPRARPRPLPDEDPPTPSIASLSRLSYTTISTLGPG
Description: CCKB receptor radioligand binding assay in mouse cortical membranes. As to conditions: [125I]-CCK8(S) 200 pM, 150 min at 21±3°, read-out: CCKB pKi (converted). In short, it runs like this:
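Bound radioactivity was gamma-counted after rapid GF/B filtration and cold 50 mM Tris-HCl (pH 7.4) washes. The tissue was cerebral cortex from male CD1 mice, prepared as twice-centrifuged membranes in pH 7.2 HEPES/NaCl/KCl/MgCl2/EDTA buffer with bacitracin at 20 mg/ml original wet weight.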

The values that follow come from patent US6479531B1, “Gastrin and cholecystokinin receptor ligands” (James Black Foundation Limited, priority 1998, dated 2002).

As to `Cc1ccccc1-c1nc(C(=O)Nc2cccc(CC(=O)O)c2)c(CCC23CC4CC(CC(C4)C2)C3)[nH]1` [Example 83, (3-{[5-(2-Adamantan-1-yl-ethyl)-2-o-tolyl-1H-imidazole-4-carbonyl]-amino}-phenyl)-acetic Acid], the Ki is 2.24 nM. As for `O=C(O)c1cccc(CNC(=O)c2nc(-c3ccccc3)[nH]c2CCC23CC4CC(CC(C4)C2)C3)c1` [Example 85, 3-({[5-(2-Adamantan-1-yl-ethyl)-2-phenyl-1H-imidazole-4-carbonyl]-amino}-methyl)-benzoic Acid], the figure is 479 nM. As to `O=C(O)c1cccc(NC(=O)c2nc(C3CCCCC3)[nH]c2CCc2ccccc2)c1` [Example 88, 3-[(2-Cyclohexyl-5-phenethyl-1H-imidazole-4-carbonyl)-amino]-benzoic Acid], the Ki was 6610 nM. As for `Cc1ccccc1-c1nc(C(=O)Nc2cccc(C(=O)O)c2)c(CCC(C)(C)C)[nH]1` [Example 91, 3-{[5-(3,3-Dimethyl-butyl)-2-o-tolyl-1H-imidazole-4-carbonyl]-amino}-benzoic Acid], the figure is 3800 nM. As for `Cc1ccccc1-c1nc(C(=O)N2CCC[C@H]2C(=O)O)c(CCC23CC4CC(CC(C4)C2)C3)[nH]1` [Example 95, (2S)-1-[5-(2-Adamantan-1-yl-ethyl)-2-o-tolyl-1H-imidazole-4-carbonyl]-pyrrolidine-carboxylic Acid], the figure is 2510 nM. Consider `Cc1ccccc1-c1nc(C(=O)Nc2cccc(OCC(=O)O)c2)c(CCC23CC4CC(CC(C4)C2)C3)[nH]1` [Example 98, (3-{[5-(2-Adamantan-1-yl-ethyl)-2-o-tolyl-1H-imidazole-4-carbonyl]-amino}-phenoxy)-acetic Acid], for which the Ki was 25.1 nM. The result for `Cc1ccccc1-c1nc(C(=O)Nc2ccc(CC(=O)O)cc2)c(CCC23CC4CC(CC(C4)C2)C3)[nH]1` [Example 99] reads 186 nM. Consider `Cc1ccccc1-c1nc(C(=O)Nc2cccc(S(=O)(=O)NC(=O)c3ccccc3)c2)c(CCC23CC4CC(CC(C4)C2)C3)[nH]1` [Example 100, 5-(2-Adamantan-1-yl-ethyl)-2-o-tolyl-1H-imidazole-4-carboxylic Acid (3-benzoylsulfamoyl-phenyl)-amide], for which the Ki is 117 nM. The result for `Cc1ccccc1-c1nc(C(=O)Nc2cccc(C(=O)NS(=O)(=O)c3ccccc3)c2)c(CCC23CC4CC(CC(C4)C2)C3)[nH]1` [Example 101, 5-(2-Adamantan-1-yl-ethyl)-2-o-tolyl-1H-imidazole-4-carboxylic acid (3-benzenesulfonylaminocarbonyl-phenyl)-amide] reads 372 nM; that for `Cc1ccccc1-c1nc(C(=O)NC(C(=O)O)c2ccccc2)c(CCC23CC4CC(CC(C4)C2)C3)[nH]1` (stereo not shown) [Example 102, {[5-(2-Adamantan-1-yl-ethyl)-2-o-tolyl-1H-imidazole-4-carbonyl]-amino}-phenyl-acetic Acid], 776 nM.

Turning to `O=C(O)c1cccc(NC(=O)c2nc(C34CC5CC(CC(C5)C3)C4)[nH]c2CCC23CC4CC(CC(C4)C2)C3)c1` [Example 109, 3-{[2-Adamantan-1-yl-5-(2-adamantan-1-yl-ethyl)-1H-imidazole-4-carbonyl]-amino}-benzoic Acid], the Ki is 44.7 nM. With `Cc1ccccc1-c1nc(CCc2cccc(C(=O)O)c2)c(C(=O)NC23CC4CC(CC(C4)C2)C3)[nH]1` [Example 118, 3-{2-[5(Adamantan-1-ylcarbamoyl)-2-o-tolyl-1H-imidazole-4-yl]-ethyl}-benzoic Acid], the Ki is 776 nM. The result for `Cc1ccccc1-c1nc(CCc2cccc(C(=O)O)c2)c(C(=O)NCC23CC4CC(CC(C4)C2)C3)[nH]1` [Example 119, 3-{2-[5-(Adamantan-1-ylmethylcarbamoyl)-2-o-tolyl-1H-imidazol-4-yl]-ethyl}-benzoic Acid] reads 282 nM.

Regarding `Cc1ccccc1-c1nc(C(=O)Nc2cccc(C(=O)O)c2)c(CCC23CC4CC(CC(C4)C2)C3)o1` [Example 120, 3-{[5-(2-Adamanatan-1-yl-ethyl)-2-o-tolyl-oxazole-4-carbonyl]-amino}-benzoic Acid], the Ki was 1550 nM. Take `Cc1ccccc1-c1nc(C(=O)Nc2cccc(C(=O)O)c2)c(CCC23CC4CC(CC(C4)C2)C3)s1` [Example 121, 3-{[5-(2-Adamanatan-1-yl-ethyl)-2-o-tolyl-thiazole-4-carbonyl]-amino}-benzoic Acid]: the Ki is 2400 nM. The result for `Cc1ccccc1-c1cc(C(=O)Nc2cccc(C(=O)O)c2)c(CCC23CC4CC(CC(C4)C2)C3)[nH]1` [Example 123, 3-{[2-(2-Adamantan-1-yl-ethyl)-5-o-tolyl-1H-pyrrole-3-carbonyl]-amino}-benzoic Acid] reads 204 nM; that for `O=C(O)c1cccc(NC(=O)c2nc(C3CCCCCCCCCCC3)[nH]c2CCC23CC4CC(CC(C4)C2)C3)c1` [Example 127, 3-{[5-(2-Adamantan-1-yl-ethyl)-2-cyclododecyl-1H-imidazole-4-carbonyl]-amino}-benzoic Acid], 1700 nM. For `O=C(O)c1cccc(NC(=O)c2nc(C(C3CCCCC3)C3CCCCC3)[nH]c2CCC23CC4CC(CC(C4)C2)C3)c1` [Example 128, 3-{[5-(2-Adamanatan-1-yl-ethyl)-2-dicyclohexylmethyl-1H-imidazole-4-carbonyl]-amino}-benzoic Acid], the Ki is 2140 nM. As for `O=C(Nc1cccc(-c2nnn[nH]2)c1)c1nc(C2CCCCC2)[nH]c1CCC12CC3CC(CC(C3)C1)C2` [Example 130], the figure is 9.55 nM; as for `O=C(O)c1cccc(NC(=O)c2nc(-c3cccc4ccccc34)[nH]c2CCC23CC4CC(CC(C4)C2)C3)c1` [Example 145, 3-{[5-(2-Adamantan-1-yl-ethyl)-2-naphthalen-1-yl-1H-imidazole-4-carbonyl]-amino}-benzoic Acid], 263 nM; as for `O=C(O)c1cccc(NC(=O)c2nc(-c3cc(Cl)cc(Cl)c3)[nH]c2CCC23CC4CC(CC(C4)C2)C3)c1` [Example 147, 3-{[5-(2-Adamantan-1-yl-ethyl)-2-(3,5-dichlorophenyl)-1H-imidazole-4-carbonyl]-amino}-benzoic Acid], 912 nM. For the molecule `Cc1ccc(NC(=O)c2nc(-c3c(Cl)cccc3Cl)[nH]c2CCC23CC4CC(CC(C4)C2)C3)cc1C(=O)O` [Example 149, 5-{[5-(2-Adamantan-1-yl-ethyl)-2-(2,6-dichlorophenyl)-1H-imidazole-4-carbonyl]-amino}-2-methyl-benzoic Acid], the Ki is 5.37 nM. Take `Cc1ccc(NC(=O)c2c(CCC34CC5CC(CC(C5)C3)C4)nc(-c3ccccc3C)n2C)cc1C(=O)O` [Example 162, 5-{[5-(2-Adamantan-1-yl-ethyl)-3-methyl-2-o-tolyl-3H-imidazole-4-carbonyl]-amino}-2-methyl-benzoic Acid]: the Ki was 1660 nM.

Turning to `Cc1ccccc1-c1nc(C(=O)Nc2cccc(C(=O)O)c2)c(CC23CC4CC(CC(C4)C2)C3)[nH]1` [Example 170, 3-[(5-Adamantan-1-ylmethyl-2-o-tolyl-1H-imidazole-4-carbonyl)-amino]-benzoic Acid], the Ki is 1450 nM. As for `O=C(O)c1cccc(NC(=O)c2nc(-c3ccncc3)[nH]c2CCC23CC4CC(CC(C4)C2)C3)c1` [Example 180, 3-{[5-(2-Adamantan-1-yl-ethyl)-2-pyridine-4-yl-1H-imidazole-4-carbonyl]-amino}-benzoic Acid], the figure is 1860 nM.
